Data reported in patent publication US5922557A, “System for stably expressing a high-affinity camp phosphodiesterase and use thereof” (Merck & Co., Inc., priority 1998, dated 1999).
pEC50, pIC50: −log10 of the molar value. “Also recorded” adds a separate entry of the source. Like-named read-outs stand apart in the source and are kept apart here.

Columns and labels:
[1] = test system: CHO-K1 cells stably expressing rhPDE IVa; experiment: cells; format: cell-based
Experimental: Levels of cAMP were measured in CHO-K1 cells stably expressing PDE IVa enzyme as outlined in Materials and Methods.
CHO-K1 cells were plated at a density of 10^6 cells/175 cm^2 containing complete media with 500 μg/ml hygromycin. The flasks were maintained in an incubator at 37° C. with 5.0% CO2 for 72 hr. The media was changed and the cells were allowed to grow overnight. The cells were washed and dissociated from the plate with PBS containing 0.5 mM EDTA. Cellular cAMP content was measured by centrifuging the cell suspension at 150 g×10 min and resuspending the cells in a Hanks buffered salt solution at a density of 0.2×10^6 cells/ml. The cells were preincubated at room temperature for 15 min and then incubated with 10 μM prostaglandin I2 (PGI2) and the indicated compound for an additional 10 min. Basal cAMP levels were determined by incubating the cells in 0.1% DMSO. The incubations were terminated by the addition of HCl (0.1N final) and the cells measured for cAMP.
Determinations of whole-cell cAMP content were performed by incubating 100 μl reconstituted rabbit anti-succinyl cAMP serum with 100 μl of the whole-cell reaction or known cAMP standard and 30 pmol of 125I-cAMP TME in a […]™ well (300 μl final volume) at room temperature for 18 h. Total cpm (Bo) was determined in the absence of sample or cAMP standard. The reaction mixture was then aspirated out of the well, and individual wells were counted in a BECKMAN LS 6000SC with the window open from 10-999 for 1 min. The data were expressed as %B/Bo=[(standard or sample cpm--non-specific cpm)/(Bo cpm-non-specific cpm)]×100. Non-specific cpm were determined by incubating only the 125I-cAMP TME with assay buffer (50 mM acetate; pH 5.8) in the ScintiStrip™ well. All determinations were performed in triplicate.

[2] = test system: eosinophils from guinea pigs; experiment: Whole-cell cAMP elevation in guinea pig eosinophils; format: cell-based; conditions: vs RS 14203 and (R)-rolipram; data not presented
[3] = test system: PKA in CHO-K1 cells stably expressing PDE IVa; experiment: Whole-cell cAMP dependent protein kinase (PKA) activity ratio; format: cell-based; conditions: with 1 μM PGI2, read-out: apparent EC50 to activate PKA
Experimental: PKA activity ratios were determined as the amount of ^32 P transferred to histone F2B in the presence and absence of cAMP as described in Materials and Methods. Data points represent the fractional PKA activation by incubating cells with the indicated concentrations of inhibitor and […]. Experiments were performed in triplicate. n=3 experiments±SD.
CHO-K1 cells were grown and resuspended as described above except that the Hank's buffer was replaced by a solution containing 0.25M sucrose; 10 mM Tris, pH 7.5; and 0.5 mM EDTA. The cells were preincubated and incubated with 1 μM PGI2 and the indicated compounds at room temperature as described above. The incubations were terminated by the addition of 0.05% Triton X-100 (final) and incubating the cells for 5 min on ice. […] This mixture (final volume 220 μl) was incubated in a waterbath for 30 min at 35° C. and terminated by adding 5 ml of ice cold 5% TCA. The precipatated protein was applied to a Whatman GF/B filter under vacuum and the filter was subsequently washed with 3×5 ml ice cold TCA solution. The amount of -32P incorporation was measured by placing the filters in Aquasol and counting in a BECKMAN LSC 5000. Basal cAMP independent protein kinase activity was determined by the inclusion of 1 μM Protein Kinase A Peptide Inhibitor (19) in the reaction mixture. Maximal cAMP protein kinase activity was determined in the presence of 10 μM cAMP. All determinations were performed in triplicate and activity ratios were calculated as the [(kinase activity in the presence of PDE inhibitor minus cAMP independent kinase activity)/(maximal cAMP kinase activity minus cAMP independent kinase activity)]×100.

HL-60 cells = experiment: Whole-cell cAMP elevation in HL-60 cells; format: cell-based; conditions: vs RS 14203 and (R)-rolipram; data not presented
[4] = target: T1, recombinant full-length human PDE IVa (rhPDEIVa) (Homo sapiens, UniProt P27815, M723I); experiment: Phosphodiesterase Scintillation Proximity Assay, inhibition of soluble rhPDE IVa (100,000×g supernatant of transfected CHO-K1 cells); format: biochemical
T1 construct: a cDNA insert encoding for a full-length human PDE IVa enzyme; made in house; host or cells: CHO-K1 cells, stably transfected (also expressing the prostanoid IP receptor); 100,000xg supernatant of the sonicate
Experimental: Inhibition of soluble rhPDEIVa by specific inhibitors was examined at 100 nM substrate. Enzyme activity was determined as described in Materials and Methods using the Amersham SPA beads that specifically bind 5'AMP.
Inhibition of soluble rhPDEIVa by specific inhibitors was examined in the presence of 5 mM to 100 mM MgCl2. Enzyme activity was determined as described in Materials and Methods using the Amersham SPA beads that specifically bind 5'AMP in the presence of […] cAMP substrate.

U937 cells = experiment: Whole-cell cAMP elevation in U937 cells; format: cell-based, human; conditions: vs RS 14203 and (R)-rolipram; data not presented
FLAG PDE IVAmet330 [5] = test system: FLAG PDE IVAmet330
Experimental: (§1) CHO-K1 cells were lysed by sonication for 10 secs at a power setting of 50% (BRAUNSONIC Model 2000) in an ice cold solution containing 50 mM Tris, pH 7.5; 1 mM EDTA; and 200 μM mercaptoethanol. The soluble and particulate fractions of the cell were obtained by centrifuging the sonicate for 90 min at 100,000×g at 4° C. PDE activity was measured in a solution containing 50 mM Tris, pH 7.5; 10 mM MgCl2 ; 1 mM EDTA; and 100 nM (or indicated) 3H-cAMP (100 ml final volume) in the presence of varying concentrations of inhibitor. The reaction mixture containing enzyme was incubated for 10 min at 30° C. in 96-well View Plates (PACKARD), and terminated by the addition of 50 μl Phosphodiesterase Scintillation Proximity Assay (SPA) Beads ([sequence]) containing 18 mM ZnSO4. The amount of 3H-cAMP hydrolysis was determined by counting the plates in a WALLAC 1450 μBeta LSC counter.
(§2) CHO-K1 cells stably expressing epitope FLAG PDE IV constructs were lysed by sonication for 10 secs at a power setting of 50% (Braunsonic Model 2000) in an ice cold solution containing 50 mM Tris, pH 7.5; 1 mM EDTA; protease inhibitor cocktail (Boehringer, Montreal, QUE). The soluble and particulate fractions of the cell were obtained by centrifuging the sonicate for 90 min at 100,000×g at 40° C.

human neutrophils = experiment: Whole-cell cAMP elevation in human neutrophils; format: cell-based; conditions: vs RS 14203 and (R)-rolipram; data not presented
[6] = test system: high-affinity rolipram binding site, rat forebrain membranes; conditions: cited from earlier work
patients = conditions: clinic; cited from earlier work
PDE IVh6.1 = PDE IVh6.1 in S. cerevisiae or COS-1 cells; cited from earlier work
[7] = test system: full-length PDE Iva / HPDE IV; conditions: cited from earlier work
[8] = test system: catalytic portion of PDE IV; conditions: UCR1 and UCR2 deleted; cited from earlier work
[9] = test system: constitutive phosphodiesterase of control cells (VH2); experiment: Constitutive phosphodiesterase activity in control cells (VH2); format: biochemical; conditions: control cells (VH2) in selection media
Experimental: as §1

FLAG PDE IVAmet330 [10] = target: T2, FLAG PDE IVAmet330 (Homo sapiens, UniProt P27815, M723I); format: binding; parameters: made in house; conditions: 0.2 to 100 nM [^3 H](R)-rolipram
Target sequence in this assay (P27815 332-886 M723I): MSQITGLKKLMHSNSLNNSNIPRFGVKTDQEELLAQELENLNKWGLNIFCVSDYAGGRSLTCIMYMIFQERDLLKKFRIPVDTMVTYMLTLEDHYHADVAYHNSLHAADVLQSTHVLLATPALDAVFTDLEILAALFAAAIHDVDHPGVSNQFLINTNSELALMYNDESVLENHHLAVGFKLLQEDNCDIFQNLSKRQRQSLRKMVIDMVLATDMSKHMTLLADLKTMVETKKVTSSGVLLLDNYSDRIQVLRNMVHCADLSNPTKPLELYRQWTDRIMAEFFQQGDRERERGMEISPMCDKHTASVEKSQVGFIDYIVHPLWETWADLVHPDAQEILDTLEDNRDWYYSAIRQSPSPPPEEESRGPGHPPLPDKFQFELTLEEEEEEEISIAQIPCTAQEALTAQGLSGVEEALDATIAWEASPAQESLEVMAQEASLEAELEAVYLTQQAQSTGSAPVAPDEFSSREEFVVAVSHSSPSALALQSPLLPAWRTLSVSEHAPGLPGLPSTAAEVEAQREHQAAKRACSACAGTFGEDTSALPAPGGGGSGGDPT
Experimental: CHO-K1 cells stably expressing epitope FLAG PDE IV constructs were lysed by sonication for 10 secs at a power setting of 50% (Braunsonic Model 2000) in an ice cold solution containing 50 mM Tris, pH 7.5; 1 mM EDTA; protease inhibitor cocktail (Boehringer, Montreal, QUE). The soluble and particulate fractions of the cell were obtained by centrifuging the sonicate for 90 min at 100,000×g at 40° C. […] The affinity matrix was washed with column buffer until all unbound protein was eluted from the column as determined with a UV-2 flow cell. Bound material was eluted with column buffer containing 0.5 mg/ml. FLAG peptide at a flow rate of 2 ml/min.
The filters were quickly washed with an ice-cold solution of 50 mM Tris; pH 7.5. […] Non-specific binding amounted to less than 5% of the total measured binding activity.

cAMP PDE = conditions: membraneous and cytosolic fractions, rat brain; cited from earlier work
[11] = test system: PDE IVA enzyme and various deletion mutants; conditions: cited from earlier work
FLAG PDE IVA = FLAG PDE IVA (Homo sapiens, UniProt P27815, M723I); conditions: 150 mM KCl with 3 mg/ml HSA vs HSA alone
Experimental: PDE activity was measured in a solution containing 50 mM Tris, pH 7.5; 10 mM MgCl2; 1 mM EDTA; and 100 nM (or indicated) 3H-cAMP ([…] final volume) in the presence of varying concentrations of inhibitor. The reaction mixture containing enzyme was incubated for 10 min at 30° C. in 96-well View Plates (PACKARD), and terminated by the addition of 50 μl Phosphodiesterase Scintillation Proximity Assay (SPA) Beads ([…]) containing 18 mM ZnSO4. The amount of 3H-cAMP hydrolysis was determined by counting the plates in a WALLAC 1450 μBeta LSC counter.

FLAG PDE IVAmet330 [12] = target: T2, FLAG PDE IVAmet330; conditions: KCl and/or HSA
Target sequence in this assay (P27815 332-886 M723I limits assumed): as the sequence (P27815 332-886 M723I) above
Experimental: as §1, §2

[13] = test system: catalytic portion of PDE IV; conditions: UCR1 and UCR2 deleted; cited from earlier work; remark: listed apart in the source

T1 sequence (P27815 whole entry M723I): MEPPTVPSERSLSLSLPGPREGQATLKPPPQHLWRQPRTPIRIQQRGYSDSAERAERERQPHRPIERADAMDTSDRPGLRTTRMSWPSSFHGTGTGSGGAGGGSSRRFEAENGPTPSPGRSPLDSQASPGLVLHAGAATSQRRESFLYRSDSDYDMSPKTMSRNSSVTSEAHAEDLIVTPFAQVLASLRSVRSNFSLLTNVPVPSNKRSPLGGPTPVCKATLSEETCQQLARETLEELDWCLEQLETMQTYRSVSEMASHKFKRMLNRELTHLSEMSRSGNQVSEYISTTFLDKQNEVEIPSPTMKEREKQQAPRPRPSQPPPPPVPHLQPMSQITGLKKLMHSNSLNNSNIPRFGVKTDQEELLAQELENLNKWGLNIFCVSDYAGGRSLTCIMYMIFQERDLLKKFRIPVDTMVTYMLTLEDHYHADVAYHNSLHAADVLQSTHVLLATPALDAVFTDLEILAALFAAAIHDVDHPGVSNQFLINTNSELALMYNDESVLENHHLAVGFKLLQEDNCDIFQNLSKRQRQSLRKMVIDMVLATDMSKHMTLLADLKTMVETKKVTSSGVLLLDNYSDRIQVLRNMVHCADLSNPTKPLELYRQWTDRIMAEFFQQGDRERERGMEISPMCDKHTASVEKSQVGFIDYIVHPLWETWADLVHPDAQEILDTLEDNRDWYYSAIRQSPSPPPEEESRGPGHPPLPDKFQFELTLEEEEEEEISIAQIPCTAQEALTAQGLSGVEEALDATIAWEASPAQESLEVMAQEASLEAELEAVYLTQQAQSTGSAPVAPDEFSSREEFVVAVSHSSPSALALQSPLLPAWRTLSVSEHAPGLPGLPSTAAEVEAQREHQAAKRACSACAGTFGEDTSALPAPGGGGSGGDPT
Sequence of FLAG PDE IVA (P27815 whole entry M723I): as above

Structure (SMILES): COc1ccc([C@H](Cc2ccncc2)c2ccccc2)cc1OC1CCCC1 [CDP 840]
- relative potency / response in elevating whole-cell cAMP ([1]; with PGI2): least potent of the compounds tested, and a maximal "plateau" response was not obtained
- relative potency at elevating whole-cell cAMP [2]: consistently less potent than RS 14203 and (R)-rolipram
- pEC50 [3]: 6.50
- relative potency at elevating whole-cell cAMP (HL-60 cells): consistently less potent than RS 14203 and (R)-rolipram
- effect of increased salt / ionic strength on inhibitory potency (IC50) [4]: not substantially affected; also recorded: not appreciably affected; also recorded: not affected by an increase of ionic strength; also recorded: not affected by the increases in assay buffer ionic strength
- relative potency against recombinant full-length PDE IVa enzyme [4]: as potent as RS 14203 and more potent than (R)-rolipram
- pIC50 ([4]; read-out: IC50 for inhibition of soluble PDE IVa activity): 8.05
- relative potency at elevating whole-cell cAMP (U937 cells): consistently less potent than RS 14203 and (R)-rolipram
- discrimination between high- and low-affinity states of the enzyme (FLAG PDE IVAmet330 [5]; truncated vs full-length enzyme): do not discriminate between the two affinity states of the enzyme
- relative potency at elevating whole-cell cAMP (human neutrophils): consistently less potent than RS 14203 and (R)-rolipram

Structure (SMILES): COc1ccc(C2CNC(=O)C2)cc1OC1CCCC1 (racemic) [rolipram]
- difference between measured Kd (binding) and IC50 (enzymatic) [6]: > 1000 fold
- nausea in patients (patients): profound episodes of nausea in patients
- therapeutic window (patients): extremely narrow therapeutic window
- inhibitory kinetics with respect to substrate (PDE IVh6.1): simple competitive inhibitor
- inhibitory kinetics with respect to full-length PDE Iva ([7]; rolipram (racemic)): Mixed inhibitory kinetics
- saturable high-affinity rolipram binding [8]: no detectable saturable high-affinity rolipram binding
- rolipram-sensitivity of constitutive phosphodiesterase activity [9]: did not exhibit any rolipram-sensitivity
- saturable high-affinity binding to truncated enzyme (FLAG PDE IVAmet330 [10]): fails to bind rolipram with high-affinity
- concentrations inhibiting cAMP PDE activity (cAMP PDE): micromolar concentrations
- sensitivity of truncated PDE IVa to inhibition (FLAG PDE IVAmet330 [5]; truncated, catalytically active enzyme): low sensitivity to inhibition by rolipram

Structure (SMILES): COc1ccc(C(=O)Nc2c(Cl)cncc2Cl)cc1OC1CCCC1 [RP 73401]
- class of binding sites [11]: single class of high-affinity binding sites

Structure (SMILES): COc1ccc([C@@H]2CNC(=O)C2)cc1OC1CCCC1 [(R)-rolipram]
- additional increase in enzyme sensitivity to (R)-rolipram (FLAG PDE IVA): 3 fold
- pEC50 ([1]; CHO-K1, with 10 μM PGI2 (b116 prints 10 FM), read-out: EC50 for elevating cellular cAMP): 6.31
- Hill co-effecient for inhibition of HPDE IV catalytic activity [7]: 0.43
- pEC50 ([3]; CHO-K1): 6.77
- effect of assay solution osmolality on rolipram sensitivity of the enzyme [4]: no effect upon the rolipram sensitivity of the enzyme
- inhibition of cAMP hydrolytic activity in the stable clones [4]: completely inhibitable
- effect of assay conditions on sensitivity of FLAG PDE IVAmet330 to (R)-rolipram (FLAG PDE IVAmet330 [12]): unaffected
- concentration required for inhibition of catalytic portion [13]: at least a micromolar concentration
